In patent US20230011916A1, “METHODS OF CANCER TREATMENT USING ANTI-OX40 ANTIBODIES IN COMBINATION WITH PI3 KINASE DELTA INHIBITORS” (BEIGENE, LTD., priority 2019, published 2023):

Key:
Assay type in all cases: in vivo, mouse
EMT-6 cells = experiment: EMT-6 syngeneic breast cancer model in BALB/c mice
Experimental: EMT-6 cells are of murine breast cancer origin. Female BALB/c mice were implanted intramammary with 5×10^4 EMT-6 cells per 100 μL PBS mice in the second right papilla. After inoculation, mice were randomized into 4 groups with 25 animals in each group according to inoculation order.
The mice were treated with vehicle (0.5% MC), OX86 (a murine specific anti-OX40 antibody), Compound 1 (PI3Kdelta inhibitor), and the combination of OX86 and Compound 1, respectively. OX86 was given at 0.4 mg/kg once per week (QW) by intraperitoneal (i.p.) injection, and Compound 1 was administered at 30 mg/kg twice per day (BID) by oral gavage (p.o.). Tumor volume was determined twice weekly and tumor growth inhibition was determined using the formula described in Example 14 above.

A20 cells = experiment: A20 syngeneic B cell lymphoma model in BALB/c mice; settings: Compound 1 10 mg/kg p.o.
Experimental: A20 cells are of B cell lymphoma origin. Female BALB/c mice were subcutaneously implanted with 1×10^5 A20 cells in 150 μL PBS mice in the right flank. After inoculation, mice were randomized into 4 groups with 25 animals in each group according to inoculation order. The mice were treated with vehicle (0.5% MC), OX86 (a murine specific anti-OX40 antibody), Compound 1, and the combination of OX86 and Compound 1. OX86 was given at 0.4 mg/kg once a week by intraperitoneal injection, and Compound 1 was administered at 10 mg/kg twice a day by oral gavage. Tumor volume was determined twice weekly and the TGI calculated as described above.

CT26WT cells = experiment: CT26WT syngeneic colon carcinoma model in BALB/c mice; settings: Compound 2A 10 mg/kg p.o.
Experimental: CT26WT cells are of colon cancer origin. Female BALB/c mice were subcutaneously implanted with 1×10^5 CT26WT cells in 100 μL PBS in the right flank. After inoculation, mice were randomized into 4 groups according to inoculation order. The mice were treated with vehicle (0.5% MC) as a control. Antibody 1A7.grl (sequence disclosed in US2015/0307617) was confirmed to bind mouse OX40 in house.
[…] Compound 2A was administered as single agent at 10 mg/kg twice a day by oral gavage. The 1A7.gr1 antibody in combination with Compound 2A was administered as combination therapy at the same doses described above for each therapeutic given as a single agent. Tumor volume was determined twice weekly, and the TGI calculated as described above.

[1] = OX86 0.4 mg/kg QW i.p., Compound 1 30 mg/kg BID p.o.

| SMILES | Mean Tumor Volume on Day 22 (mean ± SEM) (EMT-6 cells; [1]) | Tumor Free Animal (EMT-6 cells; [1]) | TGI on Day 22 (EMT-6 cells; OX86 0.4 mg/kg QW×4 i.p., Compound 1 30 mg/kg BID×22 p.o.) | Mean Tumor Volume on Day 26 (mean ± SEM) (A20 cells; OX86 0.4 mg/kg QW i.p.) | Tumor Free Animals at Day 47 (A20 cells; OX86 0.4 mg/kg QW i.p.) | TGI on Day 26 (A20 cells; OX86 0.4 mg/kg QW×4 i.p.) | Mean Tumor Volume on Day 25 (mean ± SEM) (CT26WT cells; 1A7.gr1 2 mg/kg QW i.p.) | Tumor Free Animals at Day 35 (CT26WT cells; 1A7.gr1 2 mg/kg QW i.p.) | TGI on Day 25 (CT26WT cells; 1A7.gr1 2 mg/kg QW×4 i.p.) |
| --- | --- | --- | --- | --- | --- | --- | --- | --- | --- |
| Cc1nc([C@@H](C)c2cc(Cl)c(F)c(C(=O)NCCN3CCN(C)CC3)c2OC(C)C)n2ccnc(N)c12 [Compound 1, (S)-3-(1-(8-amino-1-methylimidazo[1,5-a]pyrazin-3-yl)ethyl)-5-chloro-6-fluoro-2-isopropoxy-N-(2-(4-methylpiperazin-1-yl)ethyl)benzamide] | 758.1 ± 100.6 mm^3 | 4% | 26% | 683.9 ± 89.7 mm^3 | 0% | 7% | – | – | – |
| CC(C)Oc1c([C@H](C)c2nc(Cl)c3c(N)nccn23)cc(Cl)c(F)c1-c1ccc(C(F)(F)F)nc1 [Compound 2A, 1-chloro-3-(1-(5-chloro-4-fluoro-2-isopropoxy-3-(6-(trifluoromethyl)pyridin-3-yl)phenyl)ethyl) imidazo[1,5-a]pyrazin-8-amine] | – | – | – | – | – | – | 941.6 ± 207.8 mm^3 | 7% | 58% |
